What was measured:
glycated HSA [1] = molecular target: T1, glycated HSA (Homo sapiens, UniProt P02768); conditions: 4°C, comparable glycation conditions; cited from earlier work
glycated HSA (gHSA3) [2] = molecular target: T2, glycated HSA (gHSA3) (Homo sapiens, UniProt P02768); conditions: gHSA3 column
[3] = depending on storage conditions; cited from earlier work
glycated HSA (gHSA1) [4] = molecular target: T3, glycated HSA (gHSA1) (Homo sapiens, UniProt P02768); assay: biochemical
normal HSA = normal HSA columns, 37°C; cited from earlier work
glycated HSA (gHSA3) [5] = molecular target: T2, glycated HSA (gHSA3); assay: biochemical
glycated HSA (gHSA2) [6] = molecular target: T4, glycated HSA (gHSA2) (Homo sapiens, UniProt P02768); assay: biochemical
glycated HSA (gHSA1) [7] = molecular target: T3, glycated HSA (gHSA1); conditions: gHSA1 column
glycated HSA [8] = molecular target: T1, glycated HSA; conditions: pH 7.4, 37°C; versus reported Ka of 1.1 × 10^4 M^−1 for normal HSA
glycated HSA (gHSA2) [9] = molecular target: T4, glycated HSA (gHSA2); conditions: gHSA2 column
[10] = binding capacity normalized for protein content
[11] = moles of active binding sites, Eqn. 3

T2 sequence (P02768 25-609): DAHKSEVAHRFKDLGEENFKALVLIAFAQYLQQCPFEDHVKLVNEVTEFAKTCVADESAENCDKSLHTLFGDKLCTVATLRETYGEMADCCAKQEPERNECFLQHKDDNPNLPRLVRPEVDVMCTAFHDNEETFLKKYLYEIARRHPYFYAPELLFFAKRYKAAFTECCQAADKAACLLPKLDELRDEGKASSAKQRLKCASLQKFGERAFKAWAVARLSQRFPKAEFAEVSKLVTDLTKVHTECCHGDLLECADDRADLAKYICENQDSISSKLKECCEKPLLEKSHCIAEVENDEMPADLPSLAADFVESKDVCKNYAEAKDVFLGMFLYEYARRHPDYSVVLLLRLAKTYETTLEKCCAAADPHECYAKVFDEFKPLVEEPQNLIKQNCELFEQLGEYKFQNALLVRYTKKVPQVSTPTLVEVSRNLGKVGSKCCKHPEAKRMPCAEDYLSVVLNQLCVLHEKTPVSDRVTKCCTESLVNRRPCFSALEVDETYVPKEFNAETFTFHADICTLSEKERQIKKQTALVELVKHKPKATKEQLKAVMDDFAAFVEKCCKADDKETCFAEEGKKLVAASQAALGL
T3 sequence (P02768 25-609): as above
T4 sequence (P02768 25-609): as above
T1 sequence (P02768 25-609): as above

Question: For `N[C@@H](Cc1c[nH]c2ccccc12)C(=O)O` [L-Tryptophan, L-tryptophan], which “decrease in affinity, glycated HSA versus HSA” value (glycated HSA [1]) is on record?
Answer: ≤ 0.6 fold

Question: What about the “Specific Activity” value (glycated HSA (gHSA3) [2]; [10]) of the same molecule?
Answer: 0.31 (± 0.04) mol/mol HSA

Question: What about the mL (glycated HSA (gHSA3) [2]; [11]) of the same molecule?
Answer: 5.8 (± 0.6) × 10^−9 mol

Question: And the “time over which solutions decrease in stability” value [3]?
Answer: 2 to 9 days

Question: What about the Kd (glycated HSA (gHSA1) [4]) of the same molecule?
Answer: 19.2 µM

Question: And the association equilibrium constant (normal HSA)?
Answer: 11000 M⁻¹

Question: And the Kd (glycated HSA (gHSA3) [5])?
Answer: 17.5 µM

Question: And the Kd (glycated HSA (gHSA2) [6])?
Answer: 15.6 µM

Question: What about the “Specific Activity” value (glycated HSA (gHSA1) [7]; [10]) of the same molecule?
Answer: 0.36 (± 0.08) mol/mol HSA

Question: What about the mL (glycated HSA (gHSA1) [7]; [11]) of the same molecule?
Answer: 5.0 (± 0.9) × 10^−9 mol

Question: And the “increase in binding affinity (Ka) with glycated HSA versus normal HSA” value (glycated HSA [8])?
Answer: 4.7–5.8 fold

Question: What about the “Specific Activity” value (glycated HSA (gHSA2) [9]; [10]) of the same molecule?
Answer: 0.30 (± 0.05) mol/mol HSA

Question: And the mL (glycated HSA (gHSA2) [9]; [11])?
Answer: 6.7 (± 1.8) × 10^−9 mol

— article PMC2907420 (Journal of pharmaceutical and biomedical analysis, 2010)
